Patent US6914045B2, “Glycopeptide antibiotics” (Wyeth Holdings Corporation, priority 2001, dated 2005)
In brackets after ≈: the same amount, converted by molar mass.

Tests used:
Test in all cases: in vitro antibacterial evaluation, MIC by broth dilution
Assay type in all cases: cell-based
Streptococcus sp. = settings: broth dilution, 18 hours at 35° C.
In short: (§1)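 MIC, the lowest antibiotic concentration preventing growth, was read across 64-0.06 μg/mL with 5×10^5 CFU/mL inoculum. Method followed NCCLS M7-A2 broth dilution using Mueller-Hinton II; Gram-positive strains covered recent methicillin-, penicillin- and/or vancomycin-resistant clinical isolates.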

Enterococcus sp. = settings: broth dilution, 18 hours at 35° C.
In short: as §1

Staphylococcus sp. = settings: broth dilution, 18 hours at 35° C.
In short: as §1

Escherichia coli = settings: 18 hours at 35° C.
In short: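 MIC is the lowest antibiotic concentration (tested 64-0.06 μg/mL) preventing growth of a 5×10^5 CFU/mL inoculum. Determined by broth dilution in Mueller-Hinton II medium following NCCLS standard M7-A2.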

Compound: CC(C)=CCCC(C)=CCN=C1NCC(C(O)C2NC(=O)C(C(O)C3CNC(=N)N3)NC(=O)C(Cc3ccc(OC4OC(CO)C(OC5OC6COC7(OC6C(O)C5O)C5CC6CC(C5)CC7C6)C(O)C4O)cc3)NC(=O)C(C(C)c3ccccc3)NC(=O)CNC(=O)C(CO)NC2=O)N1C1OC(CO)C(O)C(O)C1O (stereo not drawn) [Example 82]
- MIC Streptococcus agalactiae (GC 4564) (Streptococcus sp.): 0.5 µg/mL (≈ 0.32 µM)
- MIC Streptococcus pneumoniae (ATCC 6301) (Streptococcus sp.): 2 µg/mL (≈ 1.28 µM)
- MIC Streptococcus pneumoniae (GC 1894) (Streptococcus sp.): 0.25 µg/mL (≈ 0.16 µM)
- MIC Streptococcus pneumoniae (GC 4565) (Streptococcus sp.): 2 µg/mL (≈ 1.28 µM)
- MIC Streptococcus pyogenes (GC 4563) (Streptococcus sp.): 1 µg/mL (≈ 0.64 µM)
- MIC Streptococcus pneumoniae (ATCC 6301) (Streptococcus sp.; strain ATCC 6301): 2 µg/mL (≈ 1.28 µM)
- MIC Streptococcus pneumoniae (GC 1894) (Streptococcus sp.; strain GC 1894): 0.25 µg/mL (≈ 0.16 µM)
- MIC Streptococcus pyogenes (GC 4563) (Streptococcus sp.; strain GC 4563): 1 µg/mL (≈ 0.64 µM)
- MIC Streptococcus agalactiae (GC 4564) (Streptococcus sp.; strain GC 4564): 0.5 µg/mL (≈ 0.32 µM)
- MIC Streptococcus pneumoniae (GC 4565) (Streptococcus sp.; strain GC 4565): 2 µg/mL (≈ 1.28 µM)
- MIC Enterococcus avium (GC 4558) (Enterococcus sp.; Enterococcus avium (GC 4558)): 4 µg/mL (≈ 2.56 µM)
- MIC Enterococcus faecalis (ATCC 29212) (Enterococcus sp.; Enterococcus faecalis (ATCC 29212)): 16 µg/mL (≈ 10.2 µM)
- MIC Enterococcus faecalis (GC 4552) (Enterococcus sp.; Enterococcus faecalis (GC 4552)): 16 µg/mL (≈ 10.2 µM)
- MIC Enterococcus faecalis (GC 4553) (Enterococcus sp.; Enterococcus faecalis (GC 4553)): 8 µg/mL (≈ 5.12 µM)
- MIC Enterococcus faecalis (GC 4554) (Enterococcus sp.; Enterococcus faecalis (GC 4554)): 32 µg/mL (≈ 20.5 µM)
- MIC Enterococcus faecalis (GC 6189) (Enterococcus sp.; Enterococcus faecalis (GC 6189)): 16 µg/mL (≈ 10.2 µM)
- MIC Enterococcus faecium (GC 2243) (Enterococcus sp.; Enterococcus faecium (GC 2243)): 8 µg/mL (≈ 5.12 µM)
- MIC Enterococcus faecium (GC 4556) (Enterococcus sp.; Enterococcus faecium (GC 4556)): 16 µg/mL (≈ 10.2 µM)
- MIC Enterococcus faecium (GC 4557) (Enterococcus sp.; Enterococcus faecium (GC 4557)): 2 µg/mL (≈ 1.28 µM)
- MIC Enterococcus avium (GC 4558) (Enterococcus sp.): 4 µg/mL (≈ 2.56 µM)
- MIC Enterococcus faecalis (ATCC 29212) (Enterococcus sp.): 16 µg/mL (≈ 10.2 µM)
- MIC Enterococcus faecalis (GC 2242) (Enterococcus sp.): 16 µg/mL (≈ 10.2 µM)
- MIC Enterococcus faecalis (GC 2691) (Enterococcus sp.): 16 µg/mL (≈ 10.2 µM)
- MIC Enterococcus faecalis (GC 3059) (Enterococcus sp.): 16 µg/mL (≈ 10.2 µM)
- MIC Enterococcus faecalis (GC 4552) (Enterococcus sp.): 16 µg/mL (≈ 10.2 µM)
- MIC Enterococcus faecalis (GC 4553) (Enterococcus sp.): 8 µg/mL (≈ 5.12 µM)
- MIC Enterococcus faecalis (GC 4554) (Enterococcus sp.): 32 µg/mL (≈ 20.5 µM)
- MIC Enterococcus faecalis (GC 6189) (Enterococcus sp.): 16 µg/mL (≈ 10.2 µM)
- MIC Enterococcus faecium (GC 2243) (Enterococcus sp.): 8 µg/mL (≈ 5.12 µM)
- MIC Enterococcus faecium (GC 4556) (Enterococcus sp.): 16 µg/mL (≈ 10.2 µM)
- MIC Enterococcus faecium (GC 4557) (Enterococcus sp.): 2 µg/mL (≈ 1.28 µM)
- MIC Enterococcus faecalis (GC 2242) (Enterococcus sp.; strain GC 2242): 16 µg/mL (≈ 10.2 µM)
- MIC Enterococcus faecalis (GC 2691) (Enterococcus sp.; strain GC 2691): 16 µg/mL (≈ 10.2 µM)
- MIC Enterococcus faecalis (GC 3059) (Enterococcus sp.; strain GC 3059): 16 µg/mL (≈ 10.2 µM)
- MIC Staphylococcus aureus (ATCC 29213) (Staphylococcus sp.; strain ATCC 29213): 8 µg/mL (≈ 5.12 µM)
- MIC Staphylococcus aureus (GC 1131) (Staphylococcus sp.; strain GC 1131): 16 µg/mL (≈ 10.2 µM)
- MIC Staphylococcus aureus (GC 3051) (Staphylococcus sp.; strain GC 3051): 8 µg/mL (≈ 5.12 µM)
- MIC Staphylococcus aureus (GC 3053) (Staphylococcus sp.; strain GC 3053): 16 µg/mL (≈ 10.2 µM)
- MIC Staphylococcus aureus (GC 4541) (Staphylococcus sp.; strain GC 4541): 8 µg/mL (≈ 5.12 µM)
- MIC Staphylococcus aureus (GC 4542) (Staphylococcus sp.; strain GC 4542): 16 µg/mL (≈ 10.2 µM)
- MIC Staphylococcus aureus-SMITH (GC 4543) (Staphylococcus sp.; strain GC 4543): 8 µg/mL (≈ 5.12 µM)
- MIC Staphylococcus aureus (GC 4544) (Staphylococcus sp.; strain GC 4544): 16 µg/mL (≈ 10.2 µM)
- MIC Staphylococcus aureus (GC 4545) (Staphylococcus sp.; strain GC 4545): 8 µg/mL (≈ 5.12 µM)
- MIC Staphylococcus haemolyticus (GC 4546) (Staphylococcus sp.; strain GC 4546): 4 µg/mL (≈ 2.56 µM)
- MIC Coagulase Negative Staphylococcus (GC 4547) (Staphylococcus sp.; strain GC 4547): 4 µg/mL (≈ 2.56 µM)
- MIC Coagulase Negative Staphylococcus (GC 4548) (Staphylococcus sp.; strain GC 4548): 4 µg/mL (≈ 2.56 µM)
- MIC Coagulase Negative Staphylococcus (GC 4549) (Staphylococcus sp.; strain GC 4549): 4 µg/mL (≈ 2.56 µM)
- MIC Coagulase Negative Staphylococcus (GC 4551) (Staphylococcus sp.; strain GC 4551): 8 µg/mL (≈ 5.12 µM)
- MIC Escherichia coli (ATCC 25922) (Escherichia coli): >128 µg/mL
- MIC Escherichia coli (GC 4559) (Escherichia coli): >128 µg/mL
- MIC Escherichia coli (GC 4560) (Escherichia coli): 4 µg/mL (≈ 2.56 µM)
